Experimental data from patent US10316028B2, “Orexin receptor antagonists” (Heptares Therapeutics Limited, priority 2012, dated 2019).

Biological target: T1, human Orexin-2 receptor (Homo sapiens, UniProt O43614)
T1 construct: expressed in transfected cells; host or cells: HEK293 cells (transient transfection, Genejuice); membranes
T1 sequence (O43614 1-444): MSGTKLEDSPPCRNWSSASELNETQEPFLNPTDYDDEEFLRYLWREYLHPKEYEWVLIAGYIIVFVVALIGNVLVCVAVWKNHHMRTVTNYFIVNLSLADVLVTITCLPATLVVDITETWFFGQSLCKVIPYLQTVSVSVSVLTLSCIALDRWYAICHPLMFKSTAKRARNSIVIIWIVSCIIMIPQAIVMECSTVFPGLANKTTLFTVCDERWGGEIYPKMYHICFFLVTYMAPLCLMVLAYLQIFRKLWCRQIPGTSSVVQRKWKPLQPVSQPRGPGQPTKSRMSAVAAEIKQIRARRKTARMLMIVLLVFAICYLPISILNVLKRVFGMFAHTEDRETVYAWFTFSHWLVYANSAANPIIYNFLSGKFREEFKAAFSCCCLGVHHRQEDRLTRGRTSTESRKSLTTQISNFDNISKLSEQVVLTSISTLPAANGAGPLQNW
Test: 3H-EMPA radioligand binding assay
Settings: 3H-EMPA displacement, membranes of HEK293 cells transfected with human Orexin-2 receptor; KI by Cheng-Prussoff; read-out: OX2 pKi ave (converted)
Experimental: cDNA encoding the human Orexin-2 receptor was transfected into HEK293 cells using the transfection reagent Genejuice (Novagen). Forty-eight hours after transfection, cells were harvested and washed twice with ice cold phosphate-buffered saline. The pellet was resuspended in ice-cold buffer containing 20 mM Tris-HCl, pH 7.4, 1 mM EDTA and homogenised with an Ultraturax for 30 s at maximum speed. After centrifugation at 48,000 g for 30 min at 4° C., the pellet was resuspended and spun again. The final pellet was resuspended and frozen at −80° C. before use. Protein concentration was determined using the BCA protein assay method.
^3H-EMPA Radioligand Binding Assay
At the end of the incubation, membranes were filtered onto a unifilter, a 96-well white microplate with bonded GF/B filter pre-incubated with 0.5% polyethylenimine, with a Tomtec cell harvester and washed 4 times with distilled water. […] Radioactivity on the filter was counted (1 min) on a microbeta counter after addition of 50 µL of scintillation fluid. […] IC50 values were derived from the inhibition curve and the equilibrium dissociation constant (KI) values were calculated using the Cheng-Prussoff equation.

| Ki | SMILES |
| --- | --- |
| 316 nM | COc1ccc(N2C(=O)N(Cc3ccc4c(c3)OCO4)c3ccccc3S2(=O)=O)cc1OC [Example 1, 4-(1,3-benzodioxol-5-ylmethyl)-2-(3,4-dimethoxyphenyl)-2H-1,2,4-benzothiadiazin-3(4H)-one 1,1-dioxide] |
| 141 nM | COc1ccc(CN2C(=O)N(c3ccc(OC)c(OC)c3)S(=O)(=O)c3ccccc32)cc1F [Example 2, 2-(3,4-dimethoxyphenyl)-4-(3-fluoro-4-methoxybenzyl)-2H-1,2,4-benzothiadiazin-3(4H)-one 1,1-dioxide] |
| 447 nM | COc1cccc(CN2C(=O)N(c3cc(OC)cc(OC)c3)S(=O)(=O)c3ccccc32)c1 [Example 3, 2-(3,5-dimethoxyphenyl)-4-(3-methoxybenzyl)-2H-1,2,4-benzothiadiazin-3(4H)-one 1,1-dioxide] |
| 355 nM | COc1ccc(N2C(=O)N(Cc3cccc(C#N)c3)c3ccccc3S2(=O)=O)cc1OC [Example 4, 3-{[2-(3,4-dimethoxyphenyl)-1,1-dioxido-3-oxo-2,3-dihydro-4H-1,2,4-benzothiadiazin-4-yl]methyl}benzonitrile] |
| 89.1 nM | COc1ccc(N2C(=O)N(Cc3ccccc3)c3ccccc3S2(=O)=O)cc1OC [Example 5, 4-benzyl-2-(3,4-dimethoxyphenyl)-2H-1,2,4-benzothiadiazin-3(4H)-one 1,1-dioxide] |
| 468 nM | COc1cc(OC)cc(N2C(=O)N(Cc3cccc(C)c3)c3ccccc3S2(=O)=O)c1 [Example 6, 2-(3,5-dimethoxyphenyl)-4-(3-methylbenzyl)-2H-1,2,4-benzothiadiazin-3(4H)-one 1,1-dioxide] |
| 37.2 nM | COc1ccc(N2C(=O)N(Cc3ccc(C)cc3)c3ccccc3S2(=O)=O)cc1OC [Example 7, 2-(3,4-dimethoxyphenyl)-4-(4-methylbenzyl)-2H-1,2,4-benzothiadiazin-3(4H)-one 1,1-dioxide] |
| 56.2 nM | COc1ccc(N2C(=O)N(Cc3ccc(F)cc3)c3ccccc3S2(=O)=O)cc1OC [Example 8, 2-(3,4-dimethoxyphenyl)-4-(4-fluorobenzyl)-2H-1,2,4-benzothiadiazin-3(4H)-one 1,1-dioxide] |
| 35.5 nM | CSc1cccc(N2C(=O)N(Cc3cccc(Br)c3)c3ccccc3S2(=O)=O)c1 [Example 9, 4-(3-bromobenzyl)-2-[3-(methylsulfanyl)phenyl]-2H-1,2,4-benzothiadiazin-3(4H)-one 1,1-dioxide] |
| 117 nM | COc1cccc(N2C(=O)N(Cc3ccc(OC)c(F)c3)c3ccccc3S2(=O)=O)c1 [Example 10, 4-(3-fluoro-4-methoxybenzyl)-2-(3-methoxyphenyl)-2H-1,2,4-benzothiadiazin-3(4H)-one 1,1-dioxide] |
| 47.9 nM | CCc1cccc(N2C(=O)N(Cc3ccc(OC)c(F)c3)c3ccccc3S2(=O)=O)c1 [Example 11, 2-(3-ethylphenyl)-4-(3-fluoro-4-methoxybenzyl)-2H-1,2,4-benzothiadiazin-3(4H)-one 1,1-dioxide] |
| 34.7 nM | Cc1ccc(N2C(=O)N(Cc3cccc(F)c3)c3ccccc3S2(=O)=O)cc1Cl [Example 12, 4-(3-fluorobenzyl)-2-(3-chloro-4-methylphenyl)-2H-1,2,4-benzothiadiazin-3(4H)-one 1,1-dioxide] |
| 26.9 nM | COc1cc(OC)cc(N2C(=O)N(Cc3ccccc3F)c3ccccc3S2(=O)=O)c1 [Example 13, 2-(3,5-dimethoxyphenyl)-4-(2-fluorobenzyl)-2H-1,2,4-benzothiadiazin-3(4H)-one 1,1-dioxide] |
| 200 nM | COc1cccc(N2C(=O)N(Cc3ccccc3F)c3ccccc3S2(=O)=O)c1 [Example 14, 4-(2-fluorobenzyl)-2-(3-methoxyphenyl)-2H-1,2,4-benzothiadiazin-3(4H)-one 1,1-dioxide] |
| 29.5 nM | COc1cc(OC)cc(N2C(=O)N(Cc3ccccc3C)c3ccccc3S2(=O)=O)c1 [Example 15, 2-(3,5-dimethoxyphenyl)-4-(2-methylbenzyl)-2H-1,2,4-benzothiadiazin-3(4H)-one 1,1-dioxide] |
